In patent US8906944B2, “Compounds as tyrosine kinase modulators” (Allergan, Inc., priority 2009, dated 2014) one finds IC50 data, which are given here for 19 compounds.

One assay deals with PDGFβ (Homo sapiens, UniProt P09619). Nature of the assay: PDGFβ enzyme assay. It is filed as biochemical. Particulars: Table IV, amide or urea linker.
Assay [1] concerns the target T1, human VEGF receptor (VEGFR-2) (Homo sapiens, UniProt P35968).
T1 construct: The cytoplasmic domain of the human VEGF receptor (VEGFR-2) was expressed; His; made in house; host or cells: insect cells (baculovirus)
Kind of assay: VEGFR2 kinase assay. The format is biochemical. Particulars: His-VEGFR-2 cytoplasmic domain, 3.6 μM ATP; Table IV, amide or urea linker; read-out: VEGFR2 Enzyme IC50. Put shortly: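 His-tagged VEGFR-2 cytoplasmic domain from baculovirus-infected insect cells phosphorylating plate-bound poly-Glu-Tyr (4:1). IC50 from blank-subtracted optical density versus compound concentration.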

The target in another assay is VEGFR2 (Homo sapiens, UniProt P35968). Nature of the assay: VEGF stimulated Ca++ signal in vitro (FLIPR).
The next assay deals with VEGFR1 (Homo sapiens, UniProt P17948). Nature of the assay: VEGFR1 enzyme assay. It is filed as biochemical. Particulars: Table IV, amide or urea linker.
Chain of VEGFR1 (P17948 27-1338, species assumed): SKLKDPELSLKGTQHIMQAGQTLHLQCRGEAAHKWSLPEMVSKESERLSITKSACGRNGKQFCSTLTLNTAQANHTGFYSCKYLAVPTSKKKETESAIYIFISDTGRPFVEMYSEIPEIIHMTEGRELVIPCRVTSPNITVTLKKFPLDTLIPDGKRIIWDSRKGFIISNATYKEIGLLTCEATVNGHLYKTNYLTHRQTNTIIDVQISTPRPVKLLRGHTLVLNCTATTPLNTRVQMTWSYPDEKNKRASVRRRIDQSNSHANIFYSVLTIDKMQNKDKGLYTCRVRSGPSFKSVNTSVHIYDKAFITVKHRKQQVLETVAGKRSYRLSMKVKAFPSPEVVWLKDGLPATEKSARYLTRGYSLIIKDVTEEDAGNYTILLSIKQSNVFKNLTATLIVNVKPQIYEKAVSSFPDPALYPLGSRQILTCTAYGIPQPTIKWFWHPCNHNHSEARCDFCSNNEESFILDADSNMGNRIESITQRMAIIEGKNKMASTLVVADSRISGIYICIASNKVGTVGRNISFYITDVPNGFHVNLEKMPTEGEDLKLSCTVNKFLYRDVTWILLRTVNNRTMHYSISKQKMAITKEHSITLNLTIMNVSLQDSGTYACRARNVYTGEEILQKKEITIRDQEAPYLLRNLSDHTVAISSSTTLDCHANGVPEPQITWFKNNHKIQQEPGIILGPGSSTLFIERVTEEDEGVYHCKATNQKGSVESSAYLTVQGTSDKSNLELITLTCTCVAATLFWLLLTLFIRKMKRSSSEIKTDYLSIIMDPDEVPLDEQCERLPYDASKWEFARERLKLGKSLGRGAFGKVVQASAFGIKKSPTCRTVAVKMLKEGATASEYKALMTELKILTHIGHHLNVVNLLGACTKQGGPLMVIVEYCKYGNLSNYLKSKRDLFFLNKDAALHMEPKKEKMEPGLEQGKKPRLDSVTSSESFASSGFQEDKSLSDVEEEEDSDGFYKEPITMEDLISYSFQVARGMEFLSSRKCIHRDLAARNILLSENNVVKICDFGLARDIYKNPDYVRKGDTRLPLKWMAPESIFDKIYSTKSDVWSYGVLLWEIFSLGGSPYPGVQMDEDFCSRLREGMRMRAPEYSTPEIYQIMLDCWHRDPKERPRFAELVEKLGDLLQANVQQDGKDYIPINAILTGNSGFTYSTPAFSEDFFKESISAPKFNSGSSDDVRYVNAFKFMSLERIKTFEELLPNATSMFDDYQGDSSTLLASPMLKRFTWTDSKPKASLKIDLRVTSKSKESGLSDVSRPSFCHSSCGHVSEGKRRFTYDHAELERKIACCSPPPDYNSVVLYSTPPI

Chain of PDGFβ (P09619 33-1106): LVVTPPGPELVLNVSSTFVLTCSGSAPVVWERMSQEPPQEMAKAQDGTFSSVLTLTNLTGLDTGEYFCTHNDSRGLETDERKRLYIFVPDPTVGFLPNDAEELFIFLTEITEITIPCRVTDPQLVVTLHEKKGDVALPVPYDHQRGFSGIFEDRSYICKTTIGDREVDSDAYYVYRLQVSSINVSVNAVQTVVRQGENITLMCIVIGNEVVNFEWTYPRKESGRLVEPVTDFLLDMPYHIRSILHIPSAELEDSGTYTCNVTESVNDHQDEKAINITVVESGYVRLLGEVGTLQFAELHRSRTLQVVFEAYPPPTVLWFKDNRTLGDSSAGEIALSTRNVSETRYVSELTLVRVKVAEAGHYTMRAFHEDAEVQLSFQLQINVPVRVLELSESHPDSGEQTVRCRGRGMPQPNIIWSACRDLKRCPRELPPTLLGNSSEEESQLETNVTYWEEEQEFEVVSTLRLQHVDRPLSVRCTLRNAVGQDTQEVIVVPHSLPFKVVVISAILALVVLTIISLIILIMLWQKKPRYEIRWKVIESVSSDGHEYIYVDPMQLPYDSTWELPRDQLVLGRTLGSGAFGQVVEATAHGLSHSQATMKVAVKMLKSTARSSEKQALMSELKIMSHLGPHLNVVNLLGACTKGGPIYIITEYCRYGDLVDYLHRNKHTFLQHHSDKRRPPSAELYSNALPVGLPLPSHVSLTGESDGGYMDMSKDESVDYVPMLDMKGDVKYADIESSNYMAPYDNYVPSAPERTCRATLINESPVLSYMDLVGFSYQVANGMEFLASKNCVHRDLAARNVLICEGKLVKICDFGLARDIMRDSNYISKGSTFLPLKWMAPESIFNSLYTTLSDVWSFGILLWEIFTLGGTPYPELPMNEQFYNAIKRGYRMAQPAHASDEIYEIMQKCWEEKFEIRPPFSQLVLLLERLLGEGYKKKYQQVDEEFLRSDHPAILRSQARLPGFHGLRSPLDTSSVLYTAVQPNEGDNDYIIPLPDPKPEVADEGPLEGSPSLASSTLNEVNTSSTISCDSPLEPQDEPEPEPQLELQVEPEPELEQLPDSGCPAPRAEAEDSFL
T1 sequence (P35968 786-1356 limits assumed): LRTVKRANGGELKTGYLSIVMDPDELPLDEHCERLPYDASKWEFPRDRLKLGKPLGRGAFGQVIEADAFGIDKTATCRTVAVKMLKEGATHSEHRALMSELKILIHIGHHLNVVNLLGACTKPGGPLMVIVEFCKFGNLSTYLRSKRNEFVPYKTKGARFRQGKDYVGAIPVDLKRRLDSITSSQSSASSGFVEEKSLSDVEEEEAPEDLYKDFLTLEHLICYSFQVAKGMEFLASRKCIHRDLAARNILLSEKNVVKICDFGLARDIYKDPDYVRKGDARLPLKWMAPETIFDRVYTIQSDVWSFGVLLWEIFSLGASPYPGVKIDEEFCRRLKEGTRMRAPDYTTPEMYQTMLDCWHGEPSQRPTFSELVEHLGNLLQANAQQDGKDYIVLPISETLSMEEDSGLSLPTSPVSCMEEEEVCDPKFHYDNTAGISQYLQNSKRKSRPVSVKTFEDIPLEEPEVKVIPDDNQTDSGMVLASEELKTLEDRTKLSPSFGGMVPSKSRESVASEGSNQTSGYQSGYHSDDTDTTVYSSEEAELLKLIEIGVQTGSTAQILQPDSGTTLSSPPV
Chain of VEGFR2 (P35968 20-1356): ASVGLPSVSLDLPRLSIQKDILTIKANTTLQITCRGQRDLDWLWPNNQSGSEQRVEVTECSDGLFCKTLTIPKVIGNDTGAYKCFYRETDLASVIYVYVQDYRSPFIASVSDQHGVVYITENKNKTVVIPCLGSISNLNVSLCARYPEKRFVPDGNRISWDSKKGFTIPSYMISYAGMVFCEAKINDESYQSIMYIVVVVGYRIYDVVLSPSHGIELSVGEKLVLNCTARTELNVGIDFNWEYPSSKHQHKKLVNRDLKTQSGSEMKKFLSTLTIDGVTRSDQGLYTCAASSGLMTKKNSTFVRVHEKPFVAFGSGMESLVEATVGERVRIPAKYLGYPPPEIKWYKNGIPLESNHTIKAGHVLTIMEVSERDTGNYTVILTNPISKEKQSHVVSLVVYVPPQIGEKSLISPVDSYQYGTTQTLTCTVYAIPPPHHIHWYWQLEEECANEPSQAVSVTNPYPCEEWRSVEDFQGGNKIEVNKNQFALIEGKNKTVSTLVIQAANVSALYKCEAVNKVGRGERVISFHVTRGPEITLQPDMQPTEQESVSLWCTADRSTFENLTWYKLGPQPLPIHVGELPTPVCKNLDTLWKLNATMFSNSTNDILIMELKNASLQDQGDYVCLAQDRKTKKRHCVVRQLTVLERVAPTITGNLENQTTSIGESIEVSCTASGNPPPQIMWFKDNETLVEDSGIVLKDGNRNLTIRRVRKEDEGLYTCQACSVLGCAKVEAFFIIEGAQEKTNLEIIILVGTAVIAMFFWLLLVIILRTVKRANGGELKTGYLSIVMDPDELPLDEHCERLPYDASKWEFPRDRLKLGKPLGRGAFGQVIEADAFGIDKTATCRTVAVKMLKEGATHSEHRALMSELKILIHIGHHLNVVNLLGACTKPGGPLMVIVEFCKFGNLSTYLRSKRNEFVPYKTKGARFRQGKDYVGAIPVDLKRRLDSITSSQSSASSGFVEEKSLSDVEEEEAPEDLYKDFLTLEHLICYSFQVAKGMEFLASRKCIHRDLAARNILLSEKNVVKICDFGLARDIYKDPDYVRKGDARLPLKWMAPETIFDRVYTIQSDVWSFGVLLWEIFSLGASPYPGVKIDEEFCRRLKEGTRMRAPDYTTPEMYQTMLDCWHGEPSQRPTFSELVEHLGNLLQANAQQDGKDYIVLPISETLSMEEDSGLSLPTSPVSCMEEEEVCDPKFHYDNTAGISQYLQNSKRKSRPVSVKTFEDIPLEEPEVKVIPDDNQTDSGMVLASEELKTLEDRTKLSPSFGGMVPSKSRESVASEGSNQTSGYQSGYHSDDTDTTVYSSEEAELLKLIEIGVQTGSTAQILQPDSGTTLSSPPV

For the compound `COC(=O)[C@@H]1C[C@@H](O)CN1CCNC(=O)c1c[nH]c(-c2cc(Oc3ccc(NC(=O)Nc4cc(C)ccc4F)cc3)ccn2)c1` (relative stereo) [Example 161, methyl rel-(2R,4S)-1-(2-{[(5-{4-[4-({[(2-fluoro-5-methylphenyl)amino]carbonyl}amino)phenoxy]pyridin-2-yl}-1H-pyrrol-3-yl)carbonyl]amino}ethyl)-4-hydroxypyrrolidine-2-carboxylate], the IC50 against PDGFβ came out at 20 nM; in assay [1], 9 nM; against VEGFR2, 10 nM; at VEGFR1, 9 nM.
Turning to `COC(=O)[C@@H]1C[C@@H](O)CN1CCCNC(=O)c1c[nH]c(-c2cc(Oc3ccc(NC(=O)Nc4cc(C)ccc4F)cc3)ccn2)c1` (relative stereo) [Example 164, methyl rel-(2R,4S)-1-(3-{[(5-{4-[4-({[(2-fluoro-5-methylphenyl)amino]carbonyl}amino)phenoxy]pyridin-2-yl}-1H-pyrrol-3-yl)carbonyl]amino}propyl)-4-hydroxypyrrolidine-2-carboxylate], the IC50 worked out at 17 nM at PDGFβ, 9 nM in assay [1], 5 nM against VEGFR2 and 10 nM against VEGFR1.
For `COC(=O)[C@@H]1C[C@@H](O)CN1CCCNC(=O)c1c[nH]c(-c2cc(Oc3ccc(NC(=O)Nc4cc(C)ccc4F)c(F)c3)ccn2)c1` (relative stereo) [Example 217, methyl rel-(2R,4S)-1-(3-{[(5-{4-[3-fluoro-4-({[(2-fluoro-5-methylphenyl)amino]carbonyl}amino)phenoxy]pyridin-2-yl}-1H-pyrrol-3-yl)carbonyl]amino}propyl)-4-hydroxypyrrolidine-2-carboxylate], the IC50 amounted to 21 nM against PDGFβ, 5 nM in assay [1], 10 nM on VEGFR2 and 10 nM against VEGFR1.
Turning to `COC(=O)CNCCCNC(=O)c1c[nH]c(-c2cc(Oc3ccc(NC(=O)Nc4cc(C)ccc4F)cc3)ccn2)c1` [Example 154, methyl [(3-{[(5-{4-[4-({[(2-fluoro-5-methylphenyl)amino]carbonyl}amino)phenoxy]pyridin-2-yl}-1H-pyrrol-3-yl)carbonyl]amino}propyl)amino]acetate], the IC50 amounted to 15 nM against PDGFβ, 7 nM in assay [1], 14 nM at VEGFR2 and 8 nM against VEGFR1.
With `COC(=O)CNCCNC(=O)c1c[nH]c(-c2cc(Oc3ccc(NC(=O)Nc4cc(C)ccc4F)cc3)ccn2)c1` [Example 155, methyl [(2-{[(5-{4-[4-({[(2-fluoro-5-methylphenyl)amino]carbonyl}amino)phenoxy]pyridin-2-yl}-1H-pyrrol-3-yl)carbonyl]amino}ethyl)amino]acetate], the IC50 at PDGFβ was 20 nM; in assay [1], 8 nM; against VEGFR2 it was 4 nM; on VEGFR1, 7 nM.
Regarding `COC(=O)CN(CCNC(=O)c1c[nH]c(-c2cc(Oc3ccc(NC(=O)Nc4cc(C)ccc4F)cc3)ccn2)c1)CC(=O)OC` [Example 156, dimethyl 2,2′-[(2-{[(5-{4-[4-({[(2-fluoro-5-methylphenyl)amino]carbonyl}amino)phenoxy]pyridin-2-yl}-1H-pyrrol-3-yl)carbonyl]amino}ethyl)imino]diacetate], the IC50 on PDGFβ is 31 nM; in assay [1] it was 11 nM; against VEGFR2, 9 nM; at VEGFR1 it was 8 nM.
Regarding `CCOC(=O)CN1CCN(CCNC(=O)c2c[nH]c(-c3cc(Oc4ccc(NC(=O)Nc5cc(C)ccc5F)cc4)ccn3)c2)CC1` [Example 157, ethyl [4-(2-{[(5-{4-[4-({[(2-fluoro-5-methylphenyl)amino]carbonyl}amino)phenoxy]pyridin-2-yl}-1H-pyrrol-3-yl)carbonyl]amino}ethyl)piperazin-1-yl]acetate], the IC50 against PDGFβ worked out at 39 nM; in assay [1] it was 10 nM; at VEGFR2, 3 nM; on VEGFR1, 8 nM.
For the compound `CCOC(=O)CN1CCN(CCCNC(=O)c2c[nH]c(-c3cc(Oc4ccc(NC(=O)Nc5cc(C)ccc5F)cc4)ccn3)c2)CC1` [Example 158, ethyl [4-(3-{[(5-{4-[4-({[(2-fluoro-5-methylphenyl)amino]carbonyl}amino)phenoxy]pyridin-2-yl}-1H-pyrrol-3-yl)carbonyl]amino}propyl)piperazin-1-yl]acetate], the IC50 on PDGFβ came out at 29 nM; in assay [1] it was 11 nM; against VEGFR2 it was 11 nM; against VEGFR1, 6 nM.
As for `Cc1ccc(F)c(NC(=O)Nc2ccc(Oc3ccnc(-c4cc(C(=O)NCCCN5CCOC(CO)C5)c[nH]4)c3)cc2)c1` (stereo not shown) [Example 159, 5-{4-[4-({[(2-fluoro-5-methylphenyl)amino]carbonyl}amino)phenoxy]pyridin-2-yl}-N-{3-[2-(hydroxymethyl)morpholin-4-yl]propyl}-1H-pyrrole-3-carboxamide], the IC50 against PDGFβ came out at 33 nM; in assay [1], 11 nM; at VEGFR2, 26 nM; on VEGFR1 it was 9 nM.
Taken in the same sequence, the figures for `COC(=O)CCCOC(=O)c1c[nH]c(-c2cc(Oc3ccc(NC(=O)Nc4cc(C)ccc4F)cc3)ccn2)c1` [Example 165, 4-methoxy-4-oxobutyl 5-{4-[4-({[(2-fluoro-5-methylphenyl)amino]carbonyl}amino)phenoxy]pyridin-2-yl}-1H-pyrrole-3-carboxylate] were 35 nM, 10 nM, 12 nM and 17 nM.
Taken in the same sequence, the figures for `CCOC(=O)CCCCNC(=O)c1c[nH]c(-c2cc(Oc3ccc(NC(=O)Nc4cc(C)ccc4F)cc3)ccn2)c1` [Example 167, ethyl 5-{[(5-{4-[4-({[(2-fluoro-5-methylphenyl)amino]carbonyl}amino)phenoxy]pyridin-2-yl}-1H-pyrrol-3-yl)carbonyl]amino}pentanoate] were 27 nM, 9 nM, 11 nM and 21 nM.
Taken in the same sequence, the figures for `CCOC(=O)N1CCN(CCNC(=O)c2c[nH]c(-c3cc(Oc4ccc(NC(=O)Nc5cc(C)ccc5F)c(F)c4)ccn3)c2)CC1` [Example 168, ethyl 4-(2-{[(5-{4-[3-fluoro-4-({[(2-fluoro-5-methylphenyl)amino]carbonyl}amino)phenoxy]pyridin-2-yl}-1H-pyrrol-3-yl)carbonyl]amino}ethyl)piperazine-1-carboxylate] were 12 nM, 10 nM, 11 nM and 17 nM.
Regarding `CCOC(=O)N1CCN(CCCNC(=O)c2c[nH]c(-c3cc(Oc4cc(C(=O)Nc5cc(C)ccc5F)ccc4F)ccn3)c2)CC1` [Example 171, ethyl 4-{3-[({5-[4-(2-fluoro-5-{[(2-fluoro-5-methylphenyl)amino]carbonyl}phenoxy)pyridin-2-yl]-1H-pyrrol-3-yl}carbonyl)amino]propyl}piperazine-1-carboxylate], the IC50 against PDGFβ came to 33 nM; in assay [1], 23 nM; against VEGFR2, 21 nM; against VEGFR1, 91 nM.
In the case of `Cc1ccoc1C(=O)Nc1cc(Oc2ccnc(-c3cc(C(=O)NCCCN4CCC(O)CC4)c[nH]3)c2)ccc1F` [Example 189, 5-(4-{4-fluoro-3-[(3-methyl-2-furoyl)amino]phenoxy}pyridin-2-yl)-N-[3-(4-hydroxypiperidin-1-yl)propyl]-1H-pyrrole-3-carboxamide], the IC50 in assay [1] was determined as 34 nM; at VEGFR2, 15 nM; against VEGFR1, 37 nM.
Taken in the same sequence, the figures for `Cc1ccoc1C(=O)Nc1cc(Oc2ccnc(-c3cc(C(=O)NCCCN4CCN(C)CC4)c[nH]3)c2)ccc1F` [Example 193, 5-(4-{4-fluoro-3-[(3-methyl-2-furoyl)amino]phenoxy}pyridin-2-yl)-N-[3-(4-methylpiperazin-1-yl)propyl]-1H-pyrrole-3-carboxamide] were 31 nM, 11 nM and 35 nM.
`COCCOC(=O)CCCNC(=O)c1c[nH]c(-c2cc(Oc3ccc(NC(=O)Nc4cc(C)ccc4F)cc3)ccn2)c1` [Example 233, 2-methoxyethyl 4-{[(5-{4-[4-({[(2-fluoro-5-methylphenyl)amino]carbonyl}amino)phenoxy]pyridin-2-yl}-1H-pyrrol-3-yl)carbonyl]amino}butanoate]: the IC50 against PDGFβ worked out at 22 nM; in assay [1] it was 9 nM; at VEGFR2, 5 nM.
Taken in the same sequence, the figures for `Cc1cccc(NC(=O)Nc2ccc(Oc3ccnc(-c4cc(C(=O)NN)c[nH]4)c3)cc2)c1` [Example 238, 1-[4-({2-[4-(hydrazinocarbonyl)-1H-pyrrol-2-yl]pyridin-4-yl}oxy)phenyl]-3-(3-methylphenyl)urea] were 28 nM, 19 nM and 4 nM.
Turning to `Cc1cccc(NC(=O)Nc2ccc(Oc3ccnc(-c4cc(C(=O)NCCCN5CCOCC5)c[nH]4)c3)cc2)c1` [Example 239, 5-{4-[4-({[(3-methylphenyl)amino]carbonyl}amino)phenoxy]pyridin-2-yl}-N-(3-morpholin-4-ylpropyl)-1H-pyrrole-3-carboxamide], the IC50 against PDGFβ came out at 16 nM; in assay [1], 7 nM; on VEGFR2, 2 nM.
Taken in the same sequence, the figures for `COC(=O)CCNC(=O)c1cc(-c2cc(Oc3ccc(NC(=O)Nc4cc(C)ccc4F)cc3)ccn2)cs1` [Example 279, methyl 3-{[(4-{4-[4-({[(2-fluoro-5-methylphenyl)amino]carbonyl}amino)phenoxy]pyridin-2-yl}-2-thienyl)carbonyl]amino}propanoate] were 23 nM, 21 nM and 1 nM.

What is called IC50 is the concentration that gives 50% inhibition.
